Earlier results on 13 molecules are cited in US6552040B1, “Use of nitroxides in wound healing and in the prevention of photodamage” (priority 1999, dated 2003).

For series [1], the system named is UVB radiation-induced mouse skin damage. Conditions: mice, topical solution prior to UVB exposure, versus untreated mice.
Series [2] relates to radiation-induced alopecia. As to conditions: field of heavily irradiated skin.
For series [3] the following is noted: in vitro and in vivo.

With `Cc1c(C)c2c(c(C)c1O)CCC(C)(C(=O)O)O2` (stereo not shown) [Trolox], the “protection against UVB radiation skin damage” value in series [1] was “significantly less damage”.

Consider `N[C@@H](CCC(=O)N[C@@H](CS)C(=O)NCC(=O)O)C(=O)O` [glutathione], for which, in series [1], the “protection against UVB radiation skin damage” value was “no significant protection”.

Take `C=CC(O)C(O)C=C` (stereo not shown) [divinylglycol]: in series [1], the “protection against UVB radiation skin damage” value was “no significant protection”.

Take `CCCOC(=O)c1cc(O)c(O)c(O)c1` [propyl galate]: the “protection against UVB radiation skin damage” value in series [1] is given as “significantly less damage”.

As for `CC1(C)CC(O)CC(C)(C)N1[O]` [Tempol, 4-hydroxy-2,2,6,6-tetramethyl-piperidinyloxy, free radical], the “protection against radiation-induced alopecia” value in series [2] was “speeding the recovery of hair growth”. Also, the “protection against ionizing radiation” value in series [3] was “both in vitro and in vivo protection”. In addition, in the series on mammalian cells, the “protection of mammalian cells from hydrogen peroxide mediated cytotoxicity” value was “protecting mammalian cells”. Besides, in the series with mammalian cells (superoxide dismutase mimic), the “protection of mammalian cells from superoxide generated from hypoxanthine/xanthine oxidase” value is recorded as “protecting mammalian cells”.

Take `NC(N)=O` [urea]: in series [1], the “protection against UVB radiation skin damage” value is listed as “no significant protection”.

In the case of `CC1=C(/C=C/C(C)=C/C=C/C(C)=C/C=C/C=C(C)/C=C/C=C(C)/C=C/C2=C(C)CCCC2(C)C)C(C)(C)CCC1` [beta-carotene], in series [1], the “protection against UVB radiation skin damage” value is “no significant protection”.

Consider `Cc1c(C)c2c(c(C)c1O)CC[C@@](C)(CCC[C@H](C)CCC[C@H](C)CCCC(C)C)O2` [alphatocopherol], for which the “protection against UVB radiation skin damage” value in series [1] is listed as “significantly less damage”.

In the case of `Cc1cc(C(C)(C)C)c(O)c(C(C)(C)C)c1` [BHT], the “protection against UVB radiation skin damage” value in series [1] is listed as “no significant protection”.

As to `N[C@@H](Cc1c[nH]cn1)C(=O)O` [histidine], in series [1], the “protection against UVB radiation skin damage” value is “no significant protection”.

On to `OC[C@@H](O)[C@@H](O)[C@H](O)[C@H](O)CO` [mannitol], for which the “protection against UVB radiation skin damage” value in series [1] is given as “no significant protection”.

As to `O=C1O[C@H]([C@@H](O)CO)C(O)=C1O` [ascorbic acid], the “protection against UVB radiation skin damage” value in series [1] is “significantly less damage”.

As for `CC(C)(CO)[C@@H](O)C(=O)NCCC(=O)NCCS` [pantetheine], the “protection against UVB radiation skin damage” value in series [1] is “no significant protection”.
